Patent US20050107451A1, “Methods for treating conditions, disorders, or diseases involving cell death” (priority 2001, published 2005)
Where “and” joins values, the source holds several entries; their conditions need not be identical. Equal entries are not always repeated. Where two headings read alike, the source gives them in different places.

Test system: neurons in brain slices
Format: cell-based
Settings: for NON-STROKE AVERAGE / surviving neurons, NON-STROKE: non-stroke brain slice; for NON-STROKE AVERAGE / STROKE AVG. / surviving neurons, NON-STROKE / surviving neurons, STROKE: 24 hrs exposure; for NON-STROKE AVERAGE / STROKE AVG.: average neuron count; for STROKE AVG. / surviving neurons, STROKE: stroke brain slice; for surviving neurons, NON-STROKE / surviving neurons, STROKE: single count; for neuroprotective properties: stroke and non-stroke brain slices, result in words
Source text: A negative and positive control experiments were also run for comparison. In the positive control, a known neuroprotective gene and reporter gene (i.e., a green fluorescent protein) were shot into the stroke and non-stroke brain slices. In the negative control, only the reporter gene (i.e., a green fluorescent protein) was shot into the stroke and non-stroke brain slices. […]
A negative and positive control experiments were also run for comparison as described above for Example 1. […]
Two sets of brain slices were transfected with a plasmid containing a reporter gene (e.g. a green fluorescent protein). […] One of the sets of brain slices was treated under conditions to simulate stroke, and the other brain slice was a non-stroke control. Survival of neurons in the brain slices, as indicated by expression of the reporter molecule, was examined by direct neuron counts after 24 hrs. exposure to the compound.

Row | SMILES | NON-STROKE AVERAGE (0.781 uM) | STROKE AVG. (0.781 uM) | NON-STROKE AVERAGE (1.562 uM) | STROKE AVG. (1.562 uM) | NON-STROKE AVERAGE (3.125 uM) | STROKE AVG. (3.125 uM) | NON-STROKE AVERAGE (6.25 uM) | STROKE AVG. (6.25 uM) | NON-STROKE AVERAGE (12.5 uM) | STROKE AVG. (12.5 uM) | NON-STROKE AVERAGE (25 uM) | STROKE AVG. (25 uM) | NON-STROKE AVERAGE (50 uM) | STROKE AVG. (50 uM) | NON-STROKE AVERAGE (100 uM) | STROKE AVG. (100 uM) | neuroprotective properties | surviving neurons, STROKE (100 uM) | other results
1 | COC1C(O)[C@H](O[C@H]2CC[C@]3(C)C4CC[C@]5(C)C(C6=CC(=O)OC6)CC[C@]5(O)C4CC[C@@H]3C2)OC(C)[C@@H]1O (stereo partly drawn) [Neriifolin, (3β,5β)-3-[(6-Deoxy-3-O-methyl-α-L-glucopyranosyl)oxyl]-14-hydroxycard-20(22)-enolide] | 35 | 6.4 | 30.4 | 10 | 48.2 | 5.8 | 61 | 19.8 | 29.75 | 36.25 | 60.2 | 43.4 | 32.2 | 17.6 | 15.6 | 10.6 | exhibits neuroprotective properties |  | surviving neurons, NON-STROKE (25 uM): 49 neurons and 66 neurons and 82 neurons and 42 neurons and 62 neurons
2 | NC(C(=O)O)c1nnn[nH]1 (racemic) [(RS)-(Tetrazol-5-yl)glycine] | 25.6 | 13.2 | 28.8 | 17.2 | 50.4 | 28.2 | 94.8 | 58.8 | 65.2 | 56.6 | 78 | 53.2 | 68.8 | 89 | 73.6 | 79.6 | exhibits neuroprotective properties | 95 neurons and 76 neurons and 87 neurons and 66 neurons and 74 neurons | surviving neurons, NON-STROKE (12.5 uM): 71 neurons and 61 neurons and 75 neurons and 56 neurons and 63 neurons; surviving neurons, NON-STROKE (100 uM): 72 neurons and 87 neurons and 64 neurons and 62 neurons and 83 neurons
3 | O=C1O[C@H]([C@@H](O)CO)C([O-])=C1O.[Na+] [Sodium Ascorbate, Sodium ascorbate, reference compound] |  |  |  |  |  |  |  |  |  |  | 12.5 | 0.5 | 10 | 2 | 2.5 |  | did not exhibit neuroprotective properties |  | NON-STROKE AVERAGE (0.3125 uM): 9.5; STROKE AVG. (0.3125 uM): 2.5; NON-STROKE AVERAGE (0.625 uM): 12.5; STROKE AVG. (0.625 uM): 0.5; NON-STROKE AVERAGE (1.25 uM): 10.5; STROKE AVG. (1.25 uM): 0.5; NON-STROKE AVERAGE (2.5 uM): 8; STROKE AVG. (2.5 uM): 0.5; NON-STROKE AVERAGE (5 uM): 19.5; STROKE AVG. (5 uM): 1; NON-STROKE AVERAGE (10 uM): 15.5; STROKE AVG. (10 uM): 2
4 | CC=C(C)C(=O)OC1CCC2(C)C3CCC4[C@]5(O)CC(O)[C@@]6(O)C(CN7CC(C)CCC7[C@@]6(C)O)[C@]5(O)C[C@@]42O[C@]13O (stereo partly drawn) [Cevadine, (Z)-4α,9-Epoxycevane-3β,4,12,14,16β,17,20-heptol 3-(2-methyl-2-butenoate)] | 26.25 | 9.5 | 33.2 | 9 | 25.6 | 6.4 | 27 | 8.6 | 64 | 38.5 | 93.6 | 126 | 118 | 86.6 | 73 | 70 | exhibits neuroprotective properties | 53 neurons and 78 neurons and 77 neurons and 56 neurons and 86 neurons | surviving neurons, STROKE (3.125 uM): 9 neurons and 5 neurons and 6 neurons and 7 neurons
